The values that follow are results of earlier work, collected in patent US20230255953A1, “USE OF ROLUPERIDONE IN PREVENTING RELAPSE IN SCHIZOPHRENIA PATIENTS” (Minerva Neurosciences, Inc., priority 2022, published 2023).

Data set [1] has as its system patients with schizophrenia. To be noted: Durgam et al. 2016; cited from earlier work.
A further data set deals with chronic schizophrenia. To be noted: Arato et al. 2002 (ZEUS), cited from earlier work.

Read-outs that look alike come from different tables or passages of the source.

As to `CN(C)C(=O)N[C@H]1CC[C@H](CCN2CCN(c3cccc(Cl)c3Cl)CC2)CC1` [cariprazine], in data set [1], the Relapse rate was 24.8%.

With `O=C1Cc2cc(CCN3CCN(c4nsc5ccccc45)CC3)c(Cl)cc2N1` [ziprasidone], the “Relapse rate after one year” value in the data set on chronic schizophrenia (40 mg/day) was 43%; in the data set on chronic schizophrenia (80 mg/day), 35%; in the data set on chronic schizophrenia (160 mg/day), 36%.
